Measurements from patent US8486927B2 (Thar Pharmaceuticals, priority 2007, dated 2013).

Legend:
[1] = In-vivo absorption test in rats, oral gavage, lamotrigine in blood serum by HPLC-UV; design: species or system Rats Sprague-Dawley; conditions: for Plasma concentration of lamotrigine in rats: rats (N = 5), oral gavage, 10 mg/kg as lamotrigine
Procedure: Rats historically have been used in safety evaluation and PK screening studies and are recommended by appropriate regulatory agencies.
Dose preparation; dose is prepared and suspended in 1 ml of 5% PEG 400 with 95% methylcellulose solution (weight percentage); methylcellulose solution is prepared by dissolving 0.5% methylcellulose in water (weight percentage).
The machine was operated by Total Chrome Workstation (Perkin Elmer Instruments LLC).

[2] = cited from earlier work
[3] = Sprague-Dawley, rat, plasma, po, 10 mg/kg

Row | SMILES | Plasma concentration of lamotrigine in rats ([1]; time 0 hrs) | Plasma concentration of lamotrigine in rats ([1]; time 0.5 hrs) | Plasma concentration of lamotrigine in rats ([1]; time 1 hrs) | Plasma concentration of lamotrigine in rats ([1]; time 2 hrs) | Plasma concentration of lamotrigine in rats ([1]; time 3 hrs) | Plasma concentration of lamotrigine in rats ([1]; time 4 hrs) | Plasma concentration of lamotrigine in rats ([1]; time 8 hrs) | Plasma concentration of lamotrigine in rats ([1]; time 12 hrs) | Plasma concentration of lamotrigine in rats ([1]; time 24 hrs) | extent of absorption, solid versus solution ([2]; drug delivered as a solid or as a solution) | extent of absorption by site of delivery ([2]; drug delivered to any point in the gastrointestinal tract between the stomach and the ascending colon) | concentration at 0 h [1, 3] | concentration at 0.5 h [1, 3] | concentration at 1 h [1, 3] | concentration at 2 h [1, 3] | concentration at 3 h [1, 3] | concentration at 4 h [1, 3] | concentration at 8 h [1, 3] | concentration at 12 h [1, 3] | concentration at 24 h [1, 3]
1 | NC(=O)c1cccnc1.Nc1nnc(-c2cccc(Cl)c2Cl)c(N)n1 [Cocrystal 2] | 0 ng/mL | 1184 ng/mL | 1561 ng/mL | 1605 ng/mL | 1757 ng/mL | 1609 ng/mL | 1823 ng/mL | 1840 ng/mL | 971.8 ng/mL |  |  |  |  |  |  |  |  |  |  | 
2 | Nc1nnc(-c2cccc(Cl)c2Cl)c(N)n1 [Lamotrigine, 6-(2,3-dichlorophenyl)-1,2,4-triazine-3,5-diamine] |  |  |  |  |  |  |  |  |  | similar | consistent | 0 ng/mL | 1590 ng/mL | 2240 ng/mL | 2370 ng/mL | 2420 ng/mL | 2480 ng/mL | 2680 ng/mL | 2860 ng/mL | 2130 ng/mL
